Source: patent publication EP0059980A1, “Use of an antimicrobial preservative in ophtalmics and the care of contact lenses” (NATEC Institut für naturwissenschaftlich- technische …, priority 1981, dated 1982)
In brackets after ≈: the same amount, converted by molar mass. Where two headings read alike, the source gives them in different places.

What was measured:
Aspergillus fumigatus = experiment: Minimal inhibitory concentration (MIC), turbidity method in peptone broth; type: cell-based
Description: (§1) Die antimikrobiellen Wirkungsspektren eines erfindungsgemäß vorgeschlagenen Wirkstoffes, nämlich des Laurinsäurecholinesterchlorids, und im Vergleich dazu von den homologen Essigsäure-, Capronsäure- und Palmitinsäurecholinesterchloriden sowie von den bekannten Konservierungsmitteln Adamantylcarbonsäurecholinesterchlorid und Chlor- 'hexidin-diacetat wurden durch Bestimmung der minimalen Hemmkonzentration nach der Trübungsmethode in Pepton-Nährlösung bei einem pH von 7,0 festgestellt. Diese Methode ist von K.H. Wallhäußer und H. Schmidt in "Sterilisation, Desinfektion, Konservierung, Chemotherapie", Stuttgart (1967), Seite 420-421 beschrieben. Die Ergebnisse sind in Tabelle 1 zusammengestellt.

[1] = system: Candida albicans ATCC 10231; experiment: as above; type: cell-based
Description: as §1

E. coli ATCC 11229 = experiment: as above; type: cell-based; conditions: Escherichia coli
Description: as §1

Fusorium oxysporum = experiment: as above; type: cell-based
Description: as §1

[2] = system: Staphylococcus aureus ATCC 25923; experiment: as above; type: cell-based
Description: as §1

Streptococcus pyogenes = experiment: as above; type: cell-based
Description: as §1

Pseudomonas aeruginosa = experiment: as above; type: cell-based; conditions: Pepton-Nährlösung, pH 7,0
Description: Die antimikrobiellen Wirkungsspektren eines erfindungsgemäß vorgeschlagenen Wirkstoffes, nämlich des Laurinsäurecholinesterchlorids, und im Vergleich dazu von den homologen Essigsäure-, Capronsäure- und Palmitinsäurecholinesterchloriden sowie von den bekannten Konservierungsmitteln Adamantylcarbonsäurecholinesterchlorid und Chlor- 'hexidin-diacetat wurden durch Bestimmung der minimalen Hemmkonzentration nach der Trübungsmethode in Pepton-Nährlösung bei einem pH von 7,0 festgestellt. […] Die Ergebnisse sind in Tabelle 1 zusammengestellt.

[3] = system: Bacillus cereus ATCC 11778; experiment: as above; type: cell-based
Description: as §1

[4] = system: Bacillus subtilis ATCC 6633; experiment: as above; type: cell-based
Description: as §1

Enterobacter aerogenes = experiment: as above; type: cell-based; conditions: Klebsiella aerogenes
Description: as §1

Paecilomyces Ehrlich = experiment: as above; type: cell-based
Description: as §1

Paecilomyces variati = experiment: as above; type: cell-based
Description: as §1

Proteus vulgaris = experiment: as above; type: cell-based
Description: as §1

[5] = system: Staphylococcus epidermis ATCC 12228; experiment: as above; type: cell-based
Description: as §1

[6] = pancreatic juice
Method: (§3) Ferner wurde eine 1 %ige wäßrige Laurinsäurecholinesterchloridlösung in Gegenwart von Pankreassaft simulierten physiologischen Bedingungen (38°C) ausgesetzt und nach 1 Stunde und nach 24 Stunden Proben gezogen und auf entstandene freie Fettsäuren untersucht. Dazu wurden die Proben mit Petroläther extrahiert und im Extrakt ' die Fettsäuren mikroanalytisch bestimmt.

Pseudomonas fluorescens = experiment: Minimal inhibitory concentration (MIC), turbidity method in peptone broth; type: cell-based; conditions: Pepton-Nährlösung, pH 7,0
Description: as §1

Acute oral toxicity test = experiment: Acute oral toxicity test; parameters: species or system Mäuse; conditions: mouse, in vivo, black mice, mean (range in brackets), read-out: oraler LD 50-Wert
Description: Anhand des Laurinsäurecholinesterchlorids als Beispiel für die erfindungsgemäß verwendeten Laurinsäurecholinestersalze wurde ferner eine akute orale Toxizitätsprüfung durchgeführt, wobei schwarze Mäuse als Versuchstiere dienten. Dabei wurde gefunden, daß der orale LD 50-Wert im Mittel bei 3,15 (2,66 bis 3,74) g/kg Tiergewicht liegt.

Ratten = experiment: Subacute oral toxicity test; type: in vivo; conditions: rats, 20 and 50 mg per kg body weight
[7] = system: Albino-Meerschweinchen (Pirlbright white); experiment: Direct skin irritation test, ointment applied daily for one week; type: in vivo; conditions: 200 ppm in Vaseline ointment base, 12 guinea pigs, daily for one week on shorn flank
Method: (§2) Ferner wurde die Haut- und Schleimhautverträglichkeit von Laurinsäurecholinesterchlorid an Albino-Meerschweinchen aus einem leicht allergisierbaren Stamm (Pirlbright white) von 400 bis 700 g Gewicht und bei kleinwüchsigen Kaninchen von 1,5 bis 3 kg Gewicht geprüft. Die Tiere erhielten Standarddiät und Wasser nach Belieben. Die Raumtemperatur betrug etwa 20 °C, die Luftfeuchtigkeit etwa 50 %, die tägliche Belichtungsdauer 12 Stunden.
Die Prüfsubstanz wurde in einer Salbengrundlage aus Vaseline mit 200 ppm des Wirkstoffs auf direkte Hautreizung getestet. Bei 12 Meerschweinchen wurde die Präparation eine Woche lang täglich auf einem kurz geschorenen Bezirk an der Flanke aufgetragen und etwa 30 Sekunden eingerieben.

[8] = system: Albino-Meerschweinchen (Pirlbright white); experiment: Skin sensitisation test (induction and provocation phase); type: in vivo; conditions: 200 ppm in Vaseline; three weeks induction, 5 days pause, 3 days provocation; checked after 24 h, 2 and 3 days
Method: as §2
Daraufhin wurde bei den gleichen Tieren die lokale Anwendung der Prüfsubstanz auf drei Wochen ausgedehnt (Induktionsphase). Nach anschließender 5-tägiger Pause wurde die Prüfsubstanz an drei aufeinanderfolgenden Tagen auf einem nicht vorbehandelten kontralateralen kurzgeschorenen Kontrollbezirk eingerieben (Provokationsphase),.
Aufgrund dieser Versuche ergab sich kein Hinweis auf sensibilisierende Eigenschaften des Laurinsäurecholinesterchlorids.

Kaninchenauge = experiment: Ocular irritation test according to Draize (mucous membrane tolerance); type: in vivo, Kaninchen; conditions: 2.000 ppm in 0,9 % saline, 0,1 ml in conjunctival sac, eight rabbits
Method: as §2
Die Prüfung auf Schleimhautverträglichkeit wurde am Kaninchenauge vorgenommen. Die Prüfsubstanz wurde als Lösung von 2.000 ppm Laurinsäurecholinesterchlorid in 0,9 %iger wäßriger Kochsalzlösung im okkulären Reizwirkungstest nach Draize an acht Kaninchen auf Schleimhautverträglichkeit in der folgenden Weise geprüft.
0,1 ml der Testlösung wurden im Konjunktivalsack eines Tierauges unter Schließung von Ober- und Unterlid eingebracht. Man ließ die Lösung eine Minute lang einwirken. Das andere Auge wurde zur Kontrolle in gleicher Weise mit destilliertem Wasser behandelt.
Eine Minute nach der Applikation wurden bei der Hälfte der Tiere die behandelten Augen eine Minute lang mit '10 bis 20 ml lauwarmer physiologischer Kochsalzlösung naChgespült..Die Augen wurden anschließend bei allen behandelten Tieren geprüft.

[9] = Hydrolytic stability of aqueous solution kept boiling; type: physicochemical; conditions: 5 % aqueous solution
Description: Die erfindungsgemäß vorgeschlagenen Laurinsäurecholinestersalze besitzen auch die erforderliche Stabilität und Beständigkeit. So wurde eine 5 %ige wäßrige Laurinsäurecholinesterchloridlösung 8 Stunden am Sieden gehalten. Danach wurde eine nur unwesentliche Zunahme des Säuregehalts der Trockensubstanz von 2,5 auf 3,9 % festgestellt. Demnach kann unter den Bedingungen, unter denen die erfindungsgemäß vorgeschlagenen Wirkstoffe normaler; weise als Konservierungsmittel eingesetzt werden, eine hydrolytische Spaltung des Wirkstoffes praktisch ausgeschlossen werden.

[10] = system: Bakterien, Hefen und Schimmelpilze; experiment: Preservative challenge test according to USP XIX; type: cell-based; conditions: 0,01 % in sterile aqueous solution; criteria of Wallhäußer for category I products, up to 28 days
Description: Als Beispiel für die erfindungsgemäß vorgesehenen Konservierungsmittel wurde Laurinsäurecholinesterchlorid einem Konservierungsbelastungstest nach der Vorschrift USP XIX unterworfen und mit bekannten Konservierungsmitteln, die in Kontaktlinsen-Pflegelösungen eingesetzt werden und dem gleichen Test unterworfen wurden, verglichen.. Die USP XIX schreibt vor, daß bei einem entsprechenden Belastungstest, bei dem man von einer Ausgangskeimzahl von […] ausgeht, ein'e Verminderung der Keimzahl innerhalb von 14 Tagen um 99,9 % bei den zugesetzten Bakterien erreicht wird und daß sich die zugesetzten Pilzsporen und Hefen innerhalb der gleichen Zeit nicht signifikant vermehren.
Um die antimikrobielle Wirkung der verschiedenen untersuchten Konservierungsmittel besser vergleichen zu können, wurden die Belastungstest bei jeweils gleicher Wirkstoffkonzentration (0,01 % in steriler wäßriger Lösung) und bei gleicher Ausgangsbelastung des jeweils eingesetzten Stammes durchgeführt. In den Tabellen 2 bis 5 sind die Keimzahlen nach jeweils 2 und 10 Minuten sowie nach 1 Stunde, 2 und 24 Stunden angegeben, in den Tabellen 6 bis 9 sind die Ergebnisse nach 1 Tag, 7, 14, 21 und 28 Tagen festgehalten, da die Keimzahlen während der weiteren Laufzeit bis zum 28. Tag bei guter Konservierung nicht mehr ansteigen dürfen.
Wie aus der Monographie von K.H. Wallhäußer, Sterilisation, Desinfektion, Konservierung, 2. […]

[11] = Hydrolysis in presence of pancreatic juice under simulated physiological conditions
Method: as §3

[12] = Pepton-Nährlösung, pH 7,0, read-out: MIC-Werte
[13] = ATCC10231, Candida albicans ATCC 10231, Pepton-Nährlösung, pH 7,0, read-out: MIC-Werte
[14] = ATCC11229, E. coli ATCC 11229, Pepton-Nährlösung, pH 7,0, read-out: MIC-Werte
[15] = Fusorium oxysporum, Pepton-Nährlösung, pH 7,0, read-out: MIC-Werte
[16] = ATCC25923, Staphylococcus aureus ATCC 25923, Pepton-Nährlösung, pH 7,0, read-out: MIC-Werte
[17] = Candida albicans, ATCC10231, pH 7, read-out: MIC-Werte
[18] = ATCC11229, pH 7, read-out: MIC-Werte
[19] = Staphylococcus aureus, ATCC25923, pH 7, read-out: MIC-Werte
[20] = Paecilomyces, pH 7, read-out: MIC-Werte

C[N+](C)(C)CCOC(=O)C12CC3CC(CC(C3)C1)C2 [Adamantylcarbonsäurecholinesterchlorid]
MIC (Aspergillus fumigatus; [12]): > 400 µg/mL
MIC [1, 13]: > 400 µg/mL
MIC (E. coli ATCC 11229; [14]): > 400 µg/mL
MIC (Fusorium oxysporum; [15]): > 400 µg/mL
MIC [2, 16]: 200 µg/mL
MIC (Streptococcus pyogenes; [12]): 20 µg/mL
MIC (Pseudomonas aeruginosa): > 400 µg/mL

CCCCCC(=O)OCC[N+](C)(C)C [Capronsäurecholinesterchlorid]
MIC (Aspergillus fumigatus; [12]): > 400 µg/mL
MIC [1, 13]: > 400 µg/mL
MIC (E. coli ATCC 11229; [14]): > 400 µg/mL
MIC (Fusorium oxysporum; [15]): > 400 µg/mL
MIC [2, 16]: > 400 µg/mL
MIC (Streptococcus pyogenes; [12]): 100 µg/mL
MIC (Pseudomonas aeruginosa): > 400 µg/mL

N=C(NCCCCCCNC(=N)NC(=N)Nc1ccc(Cl)cc1)NC(=N)Nc1ccc(Cl)cc1 [Chlorhexidin-diacetat]
MIC (Aspergillus fumigatus; [12]): 12.5 µg/mL (≈ 24.7 µM)
MIC ([3]; ATCC11778, Bacillus cereus ATCC 11778, Pepton-Nährlösung, pH 7,0, read-out: MIC-Werte): 0.78 µg/mL (≈ 1.54 µM)
MIC ([4]; ATCC6633, Bacillus subtilis ATCC 6633, Pepton-Nährlösung, pH 7,0, read-out: MIC-Werte): 0.78 µg/mL (≈ 1.54 µM)
MIC [1, 13]: 3.13 µg/mL (≈ 6.19 µM)
MIC (E. coli ATCC 11229; [14]): 3.13 µg/mL (≈ 6.19 µM)
MIC (Enterobacter aerogenes; Enterobacter aerogenes, Pepton-Nährlösung, pH 7,0, read-out: MIC-Werte): 12.5 µg/mL (≈ 24.7 µM)
MIC (Fusorium oxysporum; [15]): 12.5 µg/mL (≈ 24.7 µM)
MIC (Paecilomyces Ehrlich; Paecilomyces Ehrlich, Pepton-Nährlösung, pH 7,0, read-out: MIC-Werte): 0.78 µg/mL (≈ 1.54 µM)
MIC (Paecilomyces variati; Paecilomyces variati, Pepton-Nährlösung, pH 7,0, read-out: MIC-Werte): 1.56 µg/mL (≈ 3.09 µM)
MIC (Proteus vulgaris; [12]): 50 µg/mL (≈ 98.9 µM)
MIC [2, 16]: 1.56 µg/mL (≈ 3.09 µM)
MIC ([5]; ATCC12228, Staphylococcus epidermis ATCC 12228, Pepton-Nährlösung, pH 7,0, read-out: MIC-Werte): 0.78 µg/mL (≈ 1.54 µM)
MIC (Streptococcus pyogenes; [12]): 0.78 µg/mL (≈ 1.54 µM)

CC(=O)OCC[N+](C)(C)C [Essigsäurecholinesterchlorid]
MIC (Aspergillus fumigatus; pH 7, read-out: MIC-Werte): > 400 µg/mL
MIC [1, 17]: > 400 µg/mL
MIC (E. coli ATCC 11229; [18]): > 400 µg/mL
MIC (Fusorium oxysporum; [15]): > 400 µg/mL
MIC [2, 19]: > 400 µg/mL
MIC (Streptococcus pyogenes; pH 7, read-out: MIC-Werte): 100 µg/mL
MIC (Pseudomonas aeruginosa): > 400 µg/mL

CCCCCCCC(=O)OCC(O)CO (stereo not drawn) [Glycerinmonocaprylat]
Abbauquote [6]: 13,8%

CCCCCCCCCCCC(=O)OCC[N+](C)(C)C [Laurinsäurecholinesterchlorid]
MIC (Aspergillus fumigatus; pH 7, read-out: MIC-Werte): 10 µg/mL
MIC ([3]; Bacillus cereus, ATCC11778, pH 7, read-out: MIC-Werte): 3.13 µg/mL
MIC ([4]; Bacillus subtilis, ATCC6633, pH 7, read-out: MIC-Werte): 0.78 µg/mL
MIC [1, 17]: 10 µg/mL
MIC (E. coli ATCC 11229; [18]): 10 µg/mL
MIC (Enterobacter aerogenes; pH 7, read-out: MIC-Werte): 100 µg/mL
MIC (Fusorium oxysporum; pH 7, read-out: MIC-Werte): 3.13 µg/mL
MIC (Paecilomyces Ehrlich; [20]): 0.78 µg/mL
MIC (Paecilomyces variati; [20]): 0.78 µg/mL
MIC (Proteus vulgaris; pH 7, read-out: MIC-Werte): 200 µg/mL
MIC (Pseudomonas fluorescens): 2.5 µg/mL
MIC [2, 19]: 2.5 µg/mL
MIC ([5]; Staphylococcus, ATCC12228, pH 7, read-out: MIC-Werte): 0.78 µg/mL
MIC (Streptococcus pyogenes; pH 7, read-out: MIC-Werte): 0.16 µg/mL
MIC (Pseudomonas aeruginosa): 20 µg/mL
LD50 (Acute oral toxicity test): 3150 mg/kg
Wirkungen bei subakuter oraler Toxizitätsprüfung (Ratten): keine Wirkungen
direkte Hautreizung (Hautreaktionen) [7]: keine Hautreakticnen
Reaktion im Kontrollbezirk (Sensibilisierung) [8]: in keinem Falle eine Reaktion
Reaktion im Sinne von Rötung, Schwellung, Sekretion oder Hornhautveränderung (Kaninchenauge; 1 min): In keinem Falle kam es zu einer Reaktion
spontane Abwehrreaktionen (Kaninchenauge): keine spontanen Abwehrreaktionen
Säuregehalt der Trockensubstanz ([9]; after 8 hours boiling): 3,9%
Säuregehalt der Trockensubstanz ([9]; before boiling): 2,5%
Bedingungen für ausreichende Konservierung (Abfall der Keimzahl) [10]: weit übertroffen
Hydrolyse im Kontrollversuch ohne Pankreassaft ([11]; control without pancreatic juice, 38°C): keine Hydrolyse
metabolised at 1 h ([11]; pancreatic juice): 1.5%
metabolised at 24 h ([11]; pancreatic juice): 2.5%

CCCCCCCCCCCCCCCC(=O)OCC[N+](C)(C)C [Palmitinsäurecholinesterchlorid]
MIC (Aspergillus fumigatus; [12]): 100 µg/mL
MIC [1, 13]: 100 µg/mL
MIC (E. coli ATCC 11229; [14]): > 400 µg/mL
MIC (Fusorium oxysporum; [15]): > 400 µg/mL
MIC [2, 16]: 2.5 µg/mL
MIC (Streptococcus pyogenes; [12]): 1.25 µg/mL
MIC (Pseudomonas aeruginosa): > 400 µg/mL
